Source: patent publication US4680397A, “Apovincaminol derivative” (Richter Gedeon Vegyeszeti Gyar Rt., priority 1984, dated 1987)
Counter-ions that a name gives are not always drawn.

Tests used:
Type in all cases: biochemical
[1] = biological target: phosphodiesterase isolated from rat brain; assay: phosphodiesterase inhibition, enzyme isolated from rat brain; details: inhibitor concentration giving 50% decrease of enzyme activity, 20 minutes incubation, read-out: 150(μmoles) rat brain
Method: (§1) The model experiments were performed by means of phosphodiesterase isolated from animal tissues (rat brain, cattle brain, cattle heart). […] From the test compounds a 1 mmole stock solution was prepared with aqueous hydrochloric acid solution and different amounts of the stock solution were added to the enzyme preparates corresponding to 5×10^-6, 1×10^-5 and 5×10^-5 mole/lit. of the test compound. A solution of papaverine used as reference compound is added to the enzyme preparate in an analogous manner.
(§2) The activity of the solutions of the test compound and papaverine was expressed in percents of the control (enzyme solution without any inhibitory substance, 100%).
(§3) The tests on an enzyme isolated from cattle brain and cattle heart, respectively were carried out in an analogous way.

[2] = biological target: phosphodiesterase isolated from cattle brain; assay: phosphodiesterase inhibition, enzyme isolated from cattle brain; details: inhibitor concentration giving 50% decrease of enzyme activity, 20 minutes incubation, read-out: 150(μmoles) cattle brain
Method: as §1, §2, §3

[3] = biological target: phosphodiesterase isolated from cattle heart; assay: phosphodiesterase inhibition, enzyme isolated from cattle heart; details: inhibitor concentration giving 50% decrease of enzyme activity, 20 minutes incubation, read-out: 150(μmoles) cattle heart
Method: as §1, §2, §3

Structure (SMILES)	IC50 [1]	IC50 [2]	IC50 [3]
CCC12C=CCN3CCc4c(n(c5cc([N+](=O)[O-])ccc45)C(COC(=O)c4cc(OC)c(OC)c(OC)c4)=C1)C32 (centres unmarked) [compound 889, 11-nitro-17,18-dehydro-apovincaminol 3',4',5'-tri-methoxybenzoate]	10 µM	5 µM	2 µM
CCC12C=CCN3CCc4c(n(c5cccc([N+](=O)[O-])c45)C(COC(=O)c4cc(OC)c(OC)c(OC)c4)=C1)C32 (centres unmarked) [compound 888, 9-Nitro-17,18-dehydroapovincaminol 3',4',5'-trimethoxybenzoate]	30 µM	10 µM	5 µM
CCC12C=C(COC(=O)c3cc(OC)c(OC)c(OC)c3)n3c4c(c5ccccc53)CCN(CC(O)C1)C42 (stereo not drawn) [compound 1079, 18β-Hydroxy-apovincaminol 3',4',5'-trimethoxybenzoate]	5 µM	5 µM	2 µM
CCC12C=CCN3CCc4c(n(c5cccc([N+](=O)[O-])c45)C(COC(C)=O)=C1)C32 (centres unmarked) [compound 886, 9-Nitro-17,18-dehydroapovincaminol acetate]	50 µM		
CCC12C=CCN3CCc4c(n(c5cc([N+](=O)[O-])ccc45)C(COC(C)=O)=C1)C32 (centres unmarked) [compound 887, 11-nitro-17,18-dehydro-apovincaminol acetate]	30 µM		
CCC12C=C(COC(C)=O)n3c4c(c5ccccc53)CCN(CC(O)C1)C42 (stereo not drawn) [compound 1041, 18β-Hydroxy-apovincaminol acetate]	120 µM	100 µM	60 µM
CCC12C=C(COC(C)=O)n3c4c(c5ccccc53)CCN(CC(OC(C)=O)C1)C42 (stereo not drawn) [compound 956, 18β-Acetoxy-apovincaminol acetate]	30 µM	30 µM	25 µM
COc1ccc(Cc2nccc3cc(OC)c(OC)cc23)cc1OC [papaverin hydrochloride, reference compound]	120 µM	100 µM	50 µM
